The target of test [1] is T1, baculovirus-expressed ALK (Homo sapiens, UniProt Q9UM73).
T1 construct: host or cells: baculovirus expression system
As to the kind of experiment: ALK Kinase Assay (ELISA-type, time-resolved fluorescence). Type of test: biochemical. Particulars: 1 μM ATP (Km level); read-out: ALK Activity (ALK Kinase Inhibition, IC50). The method, boiled down: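 Wells were coated with phospholipase C-γ at 10 μg/mL in Tris-buffered saline. Adding 30 ng/ml enzyme started the reaction, which ran at 37° C for 15 minutes before Eu-N1 PT66 antibody detection. Percent inhibition versus log10 concentration gave IC50 by variable-slope fit.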

In test [2] the target is T2, c-Met (cytoplasmic domain) (Homo sapiens, UniProt P08581).
T2 construct: 10 ng/mL c-Met (cytoplasmic domain, Invitrogen Corporation #PV3143); purchased Invitrogen Corporation PV3143
T2 sequence (P08581 956-1390 limits assumed): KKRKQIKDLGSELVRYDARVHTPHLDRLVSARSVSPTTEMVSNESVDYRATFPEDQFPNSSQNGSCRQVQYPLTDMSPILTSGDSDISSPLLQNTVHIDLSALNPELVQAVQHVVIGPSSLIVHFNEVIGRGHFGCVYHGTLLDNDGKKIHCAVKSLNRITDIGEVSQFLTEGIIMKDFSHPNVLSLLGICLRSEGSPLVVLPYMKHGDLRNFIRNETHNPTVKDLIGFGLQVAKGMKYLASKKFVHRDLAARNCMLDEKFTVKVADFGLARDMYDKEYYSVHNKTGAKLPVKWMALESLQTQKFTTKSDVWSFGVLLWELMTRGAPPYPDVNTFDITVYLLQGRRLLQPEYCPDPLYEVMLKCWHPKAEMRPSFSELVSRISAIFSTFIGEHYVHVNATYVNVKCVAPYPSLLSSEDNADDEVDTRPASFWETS
As to the kind of experiment: c-Met Kinase Assay (same methods as for ALK, with modifications). In kind it is biochemical. The following applies: 1 μM ATP (Km level); read-out: cMet Activity (c-Met Kinase Inhibition, IC50). An outline of the steps: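 Steps: coat wells with PLC-γ (10 μg/mL, Tris-buffered saline); add 10 ng/mL c-Met cytoplasmic domain to initiate; incubate 15 min, 37° C; detect phosphoproduct via Eu-N1 PT66 antibody.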

Some results are limits rather than exact numbers.

The IC50 is the midpoint of a concentration-inhibition curve.

T1 sequence (Q9UM73 19-1620): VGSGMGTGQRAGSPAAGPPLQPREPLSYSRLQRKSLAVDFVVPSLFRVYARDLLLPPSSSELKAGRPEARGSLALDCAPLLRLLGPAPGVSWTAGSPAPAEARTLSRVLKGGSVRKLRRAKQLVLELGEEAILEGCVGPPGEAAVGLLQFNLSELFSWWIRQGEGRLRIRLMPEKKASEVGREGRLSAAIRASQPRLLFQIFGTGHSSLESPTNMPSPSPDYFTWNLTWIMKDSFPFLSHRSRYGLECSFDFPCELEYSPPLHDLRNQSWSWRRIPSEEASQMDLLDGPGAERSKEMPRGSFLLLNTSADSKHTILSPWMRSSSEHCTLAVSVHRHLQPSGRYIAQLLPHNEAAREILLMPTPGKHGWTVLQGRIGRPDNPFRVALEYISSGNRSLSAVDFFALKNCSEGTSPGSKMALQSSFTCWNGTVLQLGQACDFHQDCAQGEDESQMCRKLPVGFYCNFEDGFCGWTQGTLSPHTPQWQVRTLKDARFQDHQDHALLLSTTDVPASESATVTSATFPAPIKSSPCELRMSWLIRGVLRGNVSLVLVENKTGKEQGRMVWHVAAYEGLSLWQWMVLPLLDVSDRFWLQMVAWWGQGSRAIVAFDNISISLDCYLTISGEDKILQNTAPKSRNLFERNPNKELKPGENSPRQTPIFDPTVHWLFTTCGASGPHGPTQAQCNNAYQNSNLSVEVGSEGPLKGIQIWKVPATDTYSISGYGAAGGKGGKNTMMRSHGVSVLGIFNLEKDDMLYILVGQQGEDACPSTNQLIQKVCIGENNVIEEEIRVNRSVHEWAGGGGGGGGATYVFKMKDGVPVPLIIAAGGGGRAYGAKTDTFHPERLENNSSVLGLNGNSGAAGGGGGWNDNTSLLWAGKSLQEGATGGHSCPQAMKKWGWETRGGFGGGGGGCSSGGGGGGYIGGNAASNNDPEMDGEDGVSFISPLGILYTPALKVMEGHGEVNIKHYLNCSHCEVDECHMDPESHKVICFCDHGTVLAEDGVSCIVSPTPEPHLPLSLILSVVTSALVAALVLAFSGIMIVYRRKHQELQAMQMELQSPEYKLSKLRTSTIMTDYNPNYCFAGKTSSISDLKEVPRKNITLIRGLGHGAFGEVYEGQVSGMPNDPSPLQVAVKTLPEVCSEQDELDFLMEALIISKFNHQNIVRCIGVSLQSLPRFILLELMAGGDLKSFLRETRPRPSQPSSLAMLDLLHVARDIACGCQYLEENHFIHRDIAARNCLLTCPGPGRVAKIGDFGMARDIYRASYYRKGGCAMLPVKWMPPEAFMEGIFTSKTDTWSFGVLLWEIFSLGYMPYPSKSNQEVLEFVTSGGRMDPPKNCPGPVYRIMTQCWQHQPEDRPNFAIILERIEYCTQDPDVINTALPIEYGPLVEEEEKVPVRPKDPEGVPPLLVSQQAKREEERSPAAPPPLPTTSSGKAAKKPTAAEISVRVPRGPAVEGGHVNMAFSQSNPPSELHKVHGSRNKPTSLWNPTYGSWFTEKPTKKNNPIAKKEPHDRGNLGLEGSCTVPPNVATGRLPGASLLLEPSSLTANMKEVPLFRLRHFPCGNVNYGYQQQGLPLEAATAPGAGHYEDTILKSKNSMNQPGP

As for `CCN1C(=O)CCCc2c1ccc(Nc1ncc(Cl)c(Nc3ccc(OC)cc3C(=O)OC(C)C)n1)c2OC` [Example 608, 2-[5-Chloro-2-(1-ethyl-6-methoxy-2-oxo-2,3,4,5-tetrahydro-1H-benzo[b]azepin-7-ylamino)-pyrimidin-4-ylamino]-5-methoxy-benzoic acid isopropyl ester], the IC50 is 1000 to 10000 nM in test [1] and over 10000 nM in test [2].

Consider `CNC(=O)c1cc(OC)ccc1Nc1nc(Nc2ccc3c(c2)C(C)(C)CCC(=O)N3)ncc1Cl` [Example 609, 2-[5-Chloro-2-(5,5-dimethyl-2-oxo-2,3,4,5-tetrahydro-1H-benzo[b]azepin-7-ylamino)-pyrimidin-4-ylamino]-5-methoxy-N-methyl-benzamide], for which the IC50 was under 100 nM in test [1] and 100 to 1000 nM in test [2].

For the molecule `COCCN1CCc2cc(Nc3ncc(Cl)c(NC4C5C=CC(C5)C4c4nc5ccccc5[nH]4)n3)c(OC)cc2CC1` (stereo not drawn) [Example 610, N*4*-[(2-exo-3-exo)-3-(1H-Benzoimidazol-2-yl)-bicyclo[2.2.1]hept-5-en-2-yl]-5-chloro-N*2*-[8-methoxy-3-(2-methoxy-ethyl)-2,3,4,5-tetrahydro-1H-benzo[d]azepin-7-yl]-pyrimidine-2,4-diamine], the results for the IC50 in test [1] and in test [2] were 1000 to 10000 nM and over 10000 nM, respectively.

For `COc1ccc(Nc2nc(Nc3ccc4c(c3)C(C)(C)CCC(=O)N4)ncc2Cl)c(-n2cccn2)c1` [Example 611, 7-[5-Chloro-4-(4-methoxy-2-pyrazol-1-yl-phenylamino)-pyrimidin-2-ylamino]-5,5-dimethyl-1,3,4,5-tetrahydro-benzo[b]azepin-2-one], the IC50 in test [1] was under 100 nM; in test [2], 1000 to 10000 nM.

Regarding `COCCN1CCc2cc(Nc3ncc(Cl)c(Nc4ccc(OC)cc4-n4cccn4)n3)c(OC)cc2CC1` [Example 612, 5-Chloro-N*2*-[8-methoxy-3-(2-methoxy-ethyl)-2,3,4,5-tetrahydro-1H-benzo[d]azepin-7-yl]-N*4*-(4-methoxy-2-pyrazol-1-yl-phenyl)-pyrimidine-2,4-diamine], the figures for the IC50 in test [1] and in test [2] were under 100 nM and over 10000 nM, respectively.

Turning to `CCN1C(=O)CCCc2c1ccc(Nc1ncc(Cl)c(Nc3ccc(OC)cc3-n3cccn3)n1)c2OC` [Example 613, 7-[5-Chloro-4-(4-methoxy-2-pyrazol-1-yl-phenylamino)-pyrimidin-2-ylamino]-1-ethyl-6-methoxy-1,3,4,5-tetrahydro-benzo[b]azepin-2-one], the values for the IC50 in test [1] and in test [2] were under 100 nM and over 10000 nM, respectively.

In the case of `CCN1C(=O)CCCc2cc(Nc3ncc(Cl)c(Nc4ccc(OC)cc4-n4cccn4)n3)c(OC)cc21` [Example 614, 7-[5-Chloro-4-(4-methoxy-2-pyrazol-1-yl-phenylamino)-pyrimidin-2-ylamino]-1-ethyl-8-methoxy-1,3,4,5-tetrahydro-benzo[b]azepin-2-one], the IC50 was under 100 nM in test [1] and over 10000 nM in test [2].

For the molecule `COc1ccc(Nc2nc(Nc3cc4c(cc3OC)CCN(CC(=O)N(C)C)CC4)ncc2Cl)c(-n2cccn2)c1` [Example 616, 2-{7-[5-Chloro-4-(4-methoxy-2-pyrazol-1-yl-phenylamino)-pyrimidin-2-ylamino]-8-methoxy-1,2,4,5-tetrahydro-benzo[d]azepin-3-yl}-N,N-dimethyl-acetamide], the IC50 is under 100 nM in test [1] and over 10000 nM in test [2].

Take `CNC(=O)c1cc(OC)ccc1Nc1nc(Nc2cc3c(cc2OC)CCN(CC(=O)N(C)C)CC3)ncc1Cl` [Example 617, 2-[5-Chloro-2-(3-dimethylcarbamoylmethyl-8-methoxy-2,3,4,5-tetrahydro-1H-benzo[d]azepin-7-ylamino)-pyrimidin-4-ylamino]-5-methoxy-N-methyl-benzamide]: the IC50 in test [1] is under 100 nM; in test [2] it was 1000 to 10000 nM.

On to `CNC(=O)c1cc(OC)ccc1Nc1nc(Nc2ccc3c(c2)CCN(CCOC)CC3)ncc1Cl` [Example 618, 2-{5-Chloro-2-[3-(2-methoxy-ethyl)-2,3,4,5-tetrahydro-1H-benzo[d]azepin-7-ylamino]-pyrimidin-4-ylamino}-5-methoxy-N-methyl-benzamide], for which the IC50 in test [1] and in test [2] was under 100 nM in each case.

Take `COc1ccc(Nc2nc(Nc3ccc4c(c3)C(C)(C)CCC(=O)N4C)ncc2Cl)c(-n2cccn2)c1` [Example 619, 7-[5-Chloro-4-(4-methoxy-2-pyrazol-1-yl-phenylamino)-pyrimidin-2-ylamino]-1,5,5-trimethyl-1,3,4,5-tetrahydro-benzo[b]azepin-2-one]: the IC50 was under 100 nM in test [1] and 100 to 1000 nM in test [2].

Consider `CNC(=O)c1cc(OC)ccc1Nc1nc(Nc2cc3c(cc2OC)CCN(CCOC)CC3)ncc1Cl` [Example 621, 2-{5-Chloro-2-[8-methoxy-3-(2-methoxy-ethyl)-2,3,4,5-tetrahydro-1H-benzo[d]azepin-7-ylamino]-pyrimidin-4-ylamino}-5-methoxy-N-methyl-benzamide], for which the IC50 was under 100 nM in test [1] and 1000 to 10000 nM in test [2].

`COc1ccc(Nc2nc(Nc3ccc4c(c3)CCC(N3CCOCC3)CC4)ncc2Cl)c(-n2cccn2)c1` (centres unmarked) [Example 622, 5-Chloro-N*4*-(4-methoxy-2-pyrazol-1-yl-phenyl)-N*2*-(7-morpholin-4-yl-6,7,8,9-tetrahydro-5H-benzocyclohepten-2-yl)-pyrimidine-2,4-diamine]: the figures for the IC50 in test [1] and in test [2] were under 100 nM and 1000 to 10000 nM, respectively.

As for `COc1ccc(Nc2nc(Nc3ccc4c(c3)CCC(O)CC4)ncc2Cl)c(-n2cccn2)c1` (centres unmarked) [Example 623, 2-[5-Chloro-4-(4-methoxy-2-pyrazol-1-yl-phenylamino)-pyrimidin-2-ylamino]-6,7,8,9-tetrahydro-5H-benzocyclohepten-7-ol], the IC50 was under 100 nM in test [1] and 1000 to 10000 nM in test [2].

In the case of `CNC(=O)C1C2C=CC(C2)C1Nc1nc(Nc2ccc3c(c2)CCC(N2CCOCC2)CC3)ncc1Cl` (stereo not drawn) [Example 624, (2-exo-3-exo)-3-[5-Chloro-2-(7-morpholin-4-yl-6,7,8,9-tetrahydro-5H-benzocyclohepten-2-ylamino)-pyrimidin-4-ylamino]-bicyclo[2.2.1]hept-5-ene-2-carboxylic acid methylamide], the IC50 in test [1] was under 100 nM; in test [2] it was 100 to 1000 nM.

For `CNC(=O)C1C2C=CC(C2)C1Nc1nc(Nc2ccc3c(c2)CCC(O)CC3)ncc1Cl` (stereo not drawn) [Example 625, (2-exo-3-exo)-3-[5-Chloro-2-(7-hydroxy-6,7,8,9-tetrahydro-5H-benzocyclohepten-2-ylamino)-pyrimidin-4-ylamino]-bicyclo[2.2.1]hept-5-ene-2-carboxylic acid methylamide], the IC50 is under 100 nM in test [1] and 100 to 1000 nM in test [2].

As for `COc1cc2c(cc1Nc1ncc(Cl)c(Nc3ccc(N4CCOCC4)cc3-n3cccn3)n1)CCN(CC(=O)N(C)C)CC2` [Example 626, 2-{7-[5-Chloro-4-(4-morpholin-4-yl-2-pyrazol-1-yl-phenylamino)-pyrimidin-2-ylamino]-8-methoxy-1,2,4,5-tetrahydro-benzo[d]azepin-3-yl}-N,N-dimethyl-acetamide], the IC50 was under 100 nM in test [1] and over 10000 nM in test [2].

Consider `CC1(C)CCC(=O)Nc2ccc(Nc3ncc(Cl)c(Nc4ccc(N5CCOCC5)cc4-n4cccn4)n3)cc21` [Example 627, 7-[5-Chloro-4-(4-morpholin-4-yl-2-pyrazol-1-yl-phenylamino)-pyrimidin-2-ylamino]-5,5-dimethyl-1,3,4,5-tetrahydro-benzo[b]azepin-2-one], for which the values for the IC50 in test [1] and in test [2] were under 100 nM and 1000 to 10000 nM, respectively.

Take `CN1CCN(c2ccc(Nc3nc(Nc4ccc5c(c4)C(C)(C)CCC(=O)N5)ncc3Cl)c(-n3cccn3)c2)CC1` [Example 628, 7-{5-Chloro-4-[4-(4-methyl-piperazin-1-yl)-2-pyrazol-1-yl-phenylamino]-pyrimidin-2-ylamino}-5,5-dimethyl-1,3,4,5-tetrahydro-benzo[b]azepin-2-one]: the IC50 in test [1] was under 100 nM; in test [2], 1000 to 10000 nM.

For the molecule `CC1(C)CCC(=O)Nc2ccc(Nc3ncc(Cl)c(Nc4ccc(N5CCC(C(=O)O)CC5)cc4-n4cccn4)n3)cc21` [Example 629, 1-{4-[5-Chloro-2-(5,5-dimethyl-2-oxo-2,3,4,5-tetrahydro-1H-benzo[b]azepin-7-ylamino)-pyrimidin-4-ylamino]-3-pyrazol-1-yl-phenyl}-piperidine-4-carboxylic acid], the IC50 in test [1] is under 100 nM; in test [2], 1000 to 10000 nM.

Regarding `COc1cc2c(cc1Nc1ncc(Cl)c(Nc3ccc(N4CCC(C(=O)O)CC4)cc3-n3cccn3)n1)CCN(CC(=O)N(C)C)CC2` [Example 630, 1-{4-[5-Chloro-2-(3-dimethylcarbamoylmethyl-8-methoxy-2,3,4,5-tetrahydro-1H-benzo[d]azepin-7-ylamino)-pyrimidin-4-ylamino]-3-pyrazol-1-yl-phenyl}-piperidine-4-carboxylic acid], the IC50 in test [1] was under 100 nM; in test [2], over 10000 nM.

Take `COc1cc2c(cc1Nc1ncc(Cl)c(Nc3ccc(N(C)C)cc3-n3cccn3)n1)CCN(CC(=O)N(C)C)CC2` [Example 631, 2-{7-[5-Chloro-4-(4-dimethylamino-2-pyrazol-1-yl-phenylamino)-pyrimidin-2-ylamino]-8-methoxy-1,2,4,5-tetrahydro-benzo[d]azepin-3-yl}-N,N-dimethyl-acetamide]: the IC50 was under 100 nM in test [1] and over 10000 nM in test [2].
